The source of these data is PMC6099493, “Discovery of Matrinic Thiadiazole Derivatives as a Novel Family of Anti-Liver Fibrosis Agents via Repression of the TGFβ/Smad Pathway” (Molecules : A Journal of Synthetic Chemistry and Natural …, 2018).

The structures appear in SMILES notation. Where a name gives a salt, the structure may show the parent alone.

What is called melting point is the temperature, or range, at which the solid turns liquid. What is called inhibition is the change of the read-out against control, counted positive when it falls.

Data set [1] has as its system COL1A1 mRNA. The data set is described as follows: COL1A1 mRNA level by real-time PCR in TGFβ1-stimulated LX-2 cells. Type of data set: cell-based, human. The note with it: 80 μM, TGFβ1 2 ng/mL. Here is the method: (§1) Next, compounds 6i, 6l and 6n were chosen as the key compounds to verify their inhibitory effects against COL1A1. LX-2 cells were stimulated with TGFβ1 (2 ng/mL), and then treated with compounds 6i, 6l and 6n (80 μM) respectively, taking 1 as the control. Their anti-COL1A1 effects were evaluated on RNA level by real-time PCR amplification. […] Then their anti-COL1A1 effects were investigated on the protein level by western blot assays.
(§2) LX-2 cells were seeded in 6-well plate, cultured in DMEM, containing 10% fetal bovine serum (FBS) in a 5% CO2 atmosphere at 37 °C. And serum-free culture was required until the cells at 90–95% confluence. After 24 h, cells were treated with TGFβ1 (2 ng/mL) and matrinic derivatives (80 μM) for 24 h. Total RNA from the LX-2 cells was extracted using Trizol reagent, purified by NucleoSpin RNA Clean-up. Reverse transcription was performed with a Transcriptor first strand cDNA synthesis kit. The cDNA was then analysis by ABI 7500 Fast Real-Time PCR System (ThermoFisher Scientific, Singapore) using TaqMan probes of TGFβ1, COL1A1, α-SMA, and GAPDH (sequence reserved by ABI, Foster City, CA ,USA) and FastStart Universal Probe master mix (Roche, Indianapolis, IN, USA).
(Real-time PCR tracks product formation cycle by cycle.)

Data set [2] concerns COL1A1 promotor. Description: COL1A1 promotor single luciferase reporter gene model in LX-2 (LX2-COL) cells. Format: cell-based, human. The note with it: Homo sapiens, LX-2 cells treated simultaneously with TGFβ1 and compound, read-out: Inhibition Percentage (inhibition rate of COL1A1 promotor's activity in LX2 cells). For orientation: Reporter assays use an easily measured gene product as a stand-in for the process of interest.

Data set [3] deals with COL1A1 protein. The data set is described as follows: COL1A1 protein level by western blot in LX-2 cells. Format: cell-based. As to conditions: Homo sapiens, TGFβ1 2 ng/mL, read-out: COL1A1 protein level inhibition rate. Here is the method:
as §1
(§3) LX-2 cells were cultured as described above. Briefly, cells were washed with phosphate-buffered saline (PBS) and were lysed in radioimmunoprecipitation assay (RIPA) lysis for 30 min in 4 °C; the supernatant was collected after centrifugation at 12,000× g, 4 °C for 15 min. Equal amounts of protein were quantified with Bradford assay, separated by SDS-PAGE and transferred to polyvinylidene difluoride membrane. The membranes were blocked for one hour at room temperature in PBST containing 5% milk and probed with specific first antibodies overnight at room temperature. Membrane was washed 3 times by PBST, followed by horseradish peroxidase-conjugated secondary antibodies and GAPDH. The proteins were visualized using chemiluminescence reagents.
Background: In western blotting, separated proteins are transferred to a membrane and probed.

The subject of data set [4] is α-SMA mRNA. Description: α-SMA mRNA level by real-time PCR in TGFβ1-stimulated LX-2 cells. Format: cell-based, human. As to conditions: 80 μM, TGFβ1 2 ng/mL. Here is the method:
(§4) α-SMA is a more commonly recognized indicator for liver fibrosis, and it could be induced by a stimulation of TGFβ1 [22], therefore, the amounts of α-SMA were also evaluated.
as §2

Data set [5] can be described thus: MTT cytotoxicity / cell survival assay. Format: cell-based. The note with it: human, HepG2 cells, read-out: CC50 (cytotoxic concentration required to inhibit HepG2 cell growth by 50%). Here is the method: (§5) A single luciferase reporter gene detection model was applied to screen the inhibitory effects towards COL1A1 promotor of all target compounds in human hepatic stellate LX-2 cells at the concentration of 40 μM, taking EGCG and compound 1 as the positive controls. The LX2-COL monoclone cell line was treated simultaneously with TGFβ1 and a target compound [13]. The cytotoxicity was determined using MTT assay in HepG2 cells.
(§6) The cell survival was evaluated by MTT assay. HepG2 cells were seeded at density of 6 × 10^3 cells/well in 96-well plate. Cells were treated with various concentrations of matrinic derivate until the cells at 50% confluence. After 24 h of incubation, 20 µL of the MTT (5 mg/mL) solution was added into each plate and incubated for 4 h at 37 °C, 5% CO2. Subsequently, the culture supernatant was replaced with 150 µL DMSO to dissolve the formazan crystal. The absorbance at 570 nm was measured using a microplate reader (ELx800, BioTek Instruments, Winooski, VT, USA).

Data set [6] concerns α-SMA protein. The data set is described as follows: α-SMA protein level by western blot in LX-2 cells. Type of data set: cell-based. The note with it: Homo sapiens, TGFβ1 2 ng/mL, read-out: α-SMA protein level inhibition rate. Here is the method:
as §4, §3

The test system of data set [7] is HepG2 cells. Description: MTT cytotoxicity / cell survival assay. Format: cell-based. The note with it: read-out: CC50 (cytotoxic concentration required to inhibit HepG2 cell growth by 50%). Here is the method:
as §5, §6

Data set [8] concerns Smad2 / phosphorylated Smad2 (TGFβ/Smad pathway). Description: Smad2 and p-Smad2 levels by western blot in LX-2 cells. Type of data set: cell-based, human. Here is the method:
Considering the key role of TGFβ/Smad pathway in activating COL1A1, the effects of the three compounds on Smad and phosphorylated Smad were then evaluated.
as §3

In data set [9] the test system is Kunming mice. The note with it: female, mouse, in vivo, po, 7 days. Here is the method:
To evaluate the safety profile of 6n, an acute toxicity test was performed in Kunming mice. Compound 6n was given orally in a single-dosing experiment at 125, 250 or 500 mg·kg^−1, respectively. The mice were closely monitored for 7 days. To our delight, it gave the median lethal dose (LD50) value over 500 mg·kg^−1, indicating a good safety profile in vivo.
Female Kunming mice with weight of 20.0 (±1.0 g) were obtained from the Institute of Laboratory Animal Science (Beijing, China). Animals were cared according to the institutional guidelines of the Institute of Materia Medica, CAMS&PUMC (00000364). The mice were fed with regular rodent chow and housed in an air conditioned room. The mice were randomly divided into different groups with 6 mice each. Each compound was given orally in a single-dosing experiment at 0, 250, 500, 750 or 1000 mg·kg^−1 (ddH2O as control), respectively. The mice were closely monitored for 7 days. Body weight as well as survival was monitored.

`Cc1ccc(S(=O)(=O)N2CC3CCCN4CCCC(C34)C2CCCC(=O)O)cc1` (centres unmarked) [Compound 1, 12-N-p-Methylbenzenesulfonyl matrinic acid] registered a melting point of 239 to 240 °C. Also, the “COL1A1 mRNA level inhibitory rate” value in data set [1] stood at 41.9%. For the same compound, in data set [2], the inhibition at 40 µM was 18.5%. Moreover, in data set [3], the inhibition at 80 µM came to 16.2%. Further, the “α-SMA mRNA level inhibitory rate” value in [4] turned out to be 69.7%. Further, in data set [5], the CC50 at 24 h is over 320 µM. Also, the inhibition at 80 µM in data set [6] was 28.9%.

Take `Cc1ccc(S(=O)(=O)N2CC3CCCN4CCCC(C34)C2CCCc2nnc(Nc3ccccc3)s2)cc1` (centres unmarked) [Compound 6e, 12-N-p-Methylbenzenesulfonyl-3′-(N-phenyl-5-amino-1,3,4-thiadiazol-2-yl)-matrinic propane]: the inhibition at 40 µM in [2] stood at 69%. Also, the CC50 in [7] was found to be 82.5 µM. The CC50 at 24 h in data set [5] is over 82.6 µM.

Take `Nc1nnc(CCCC2C3CCCN4CCCC(CN2Cc2ccccc2)C34)s1` (centres unmarked) [Compound 6i, 12-N-Benzyl-3′-(5-amino-1,3,4-thiadiazol-2-yl)-matrinic propane]: the melting point was in the range of 170 to 171 °C. Moreover, the “COL1A1 mRNA level inhibitory rate” value in data set [1] is given as 46.1%. In addition, in [2], the inhibition at 40 µM is 47.8%. In data set [8], the “Effect on Smad level” value is given as “did not affect the Smad level” and the “Effect on phosphorylation level of Smad2 (in words)” value is listed as “repressed the phosphorylation level of Smad2 significantly”. Also, the inhibition at 80 µM in data set [3] stood at 65%. Moreover, the “α-SMA mRNA level inhibitory rate” value in data set [4] is on record as 75.1%. Moreover, in data set [5], the CC50 at 24 h was over 320 µM. The inhibition at 80 µM in [6] turned out to be 64.9%.

`Cc1ccc(CN2CC3CCCN4CCCC(C2CCCc2nnc(N(C)C)s2)C34)cc1` (centres unmarked) [Compound 6n, 12-N-p-Methylbenzyl-3′-(N,N-dimethyl-5-amino-1,3,4-thiadiazol-2-yl)-matrinic propane hydrochloride]: the “COL1A1 mRNA level inhibitory rate” value in data set [1] worked out at 78.4%. Moreover, the inhibition at 40 µM in data set [2] was found to be 39.7%. Further, in data set [8], the “Effect on Smad level” value is reported as “did not affect the Smad level”, the “Effect on phosphorylation level of Smad2 (in words)” value is “repressed the phosphorylation level of Smad2 significantly” and the “Inhibition rate of Smad2 phosphorylation level” value is listed as 49.8%. In addition, the inhibition at 80 µM in [3] was 47.6%. In data set [4], the “α-SMA mRNA level inhibitory rate” value came to 87.6%. Moreover, the CC50 at 24 h in [5] was over 320 µM. Besides, the inhibition at 80 µM in [6] stood at 104%. Moreover, the “median lethal dose (LD50)” value in data set [9] was “over 500 mg·kg^−1”.
